Laboratory results published in patent publication US6482423B1, “Antimicrobial wipes which provide improved residual benefit versus gram positive bacteria” (The Procter & Gamble Company, priority 1999, dated 2002).

Tested on: Vibrio fischerio
Assay: Microtox Response Test (bioluminescence of Microtox Acute Toxicity Reagent)
Assay type: cell-based
Conditions: pure anionic surfactant; index from EC50 Value (ppm) decreasing bioluminescence by 50%, 5 minutes
Source text: The biological activity/mildness of a pure surfactant can measured directly via a Microtox Response Test hereinafter described in the Analytical Methods section and can be reported as a Microtox Response Index. By “pure surfactant” it is meant a chemical composition consisting essentially of a single surfactant entity, wherein the entity has essentially one chain length, head group and salt counter ion. From a standpoint of high biological activity, preferred anionic surfactants of the antimicrobial cleansing compositions of the present invention have a Microtox Response Index of less that about 150, more preferably less than about 100 and most preferably less than about 50. […]
For surfactant compositions which are mixtures of surfactants rather than pure surfactants (this includes “commercial grade” surfactants which typically comprise mixtures of entities with different chain lengths and potentially have higher levels of impurities), the Microtox Response Index for any individual surfactant component is not a reliable measurement of biological activity or mildness. In the case of mixtures, the Microtox Index of each individual component can be determined and the weighted average used as the Index for the mixture if all the individual components of the mixture are known. […]

Row | Molecule | Microtox Index
1 | CCCCCCCCCCCCOS(=O)(=O)O.N [ALS, ammonium lauryl sulfate] | 1.0
2 | ammonium laureth-3 sulfate | 120
